Read-outs that look alike come from different tables or passages of the source.
Tests used:
[1] = biological target: T1, CIB1 and αIIb interaction (CIB1-GST : F-αIIb peptide) (Homo sapiens, UniProt Q99828); assay: FP assay, 1536-well qHTS format (primary and confirmatory screen); type: binding; conditions: for CONFIRMATORY SCREEN Curve Class / Curve Class (confirmatory screen): qHTS curve class
T1 construct: made in house; host or cells: BL-21 plus RIL cells (E. coli)
T1 sequence (Q99828 1-191): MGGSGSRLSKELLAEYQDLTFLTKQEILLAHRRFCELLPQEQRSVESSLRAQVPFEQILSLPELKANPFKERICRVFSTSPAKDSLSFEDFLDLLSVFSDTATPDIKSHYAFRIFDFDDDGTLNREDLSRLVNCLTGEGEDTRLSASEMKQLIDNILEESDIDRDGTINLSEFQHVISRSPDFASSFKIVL

[2] = biological target: T2, GST-CIB1 : F-scrambled peptide (Homo sapiens, UniProt Q99828); assay: FP scrambled-peptide counter screen, 1536-well format; type: binding; conditions: for COUNTERSCREEN Curve Class / Curve Class (counterscreen): qHTS curve class
T2 construct: made in house; host or cells: BL-21 plus RIL cells (E. coli)
T2 sequence (Q99828 1-191): T1 sequence (Q99828 1-191)

[3] = confirmatory screen, negative sign = inhibitory curve
[4] = qHTS primary screen hits, Table S2, negative = inhibition
[5] = qHTS primary screen hits, Table S2, negative sign = inhibitory curve, several classes where COUNT > 1
[6] = qHTS primary screen hits, Table S2, read-out: IC50
[7] = scrambled-peptide counterscreen
[8] = qHTS FP screen hits, Table S2, negative = inhibition
[9] = qHTS FP screen hits, Table S2, read-out: IC50
[10] = Table S3, confirmatory screen, a negative sign marks inhibitory curves
[11] = Table S3, confirmatory screen, negative = inhibition
[12] = qHTS FP screen hits, Table S2, one class per curve where COUNT > 1, negative sign = inhibitory curve
[13] = Table S3, counterscreen, a negative sign marks inhibitory curves
[14] = Table S3, counterscreen, negative = inhibition
[15] = Table S3, counterscreen, YES/NO call
[16] = Table S3, counterscreen, read-out: IC50 [μM] (counterscreen)

Row | SMILES | Efficacy (%) [1, 4] [%] | Curve Class [1, 5] | IC50 [1, 6] [µM] | CONFIRMATORY SCREEN Efficacy (%) ([1]; confirmatory screen) | CONFIRMATORY SCREEN Curve Class ([1]; confirmatory screen) | Efficacy (%) [1, 8] [%] | IC50 [1, 9] [µM] | COUNTERSCREEN Efficacy (%) ([2]; counterscreen) | COUNTERSCREEN Curve Class ([2]; counterscreen) | Curve Class (confirmatory screen) [1, 10] | Efficacy (%) (confirmatory screen) [1, 11] | Curve Class (counterscreen) [2, 13] | Efficacy (%) (counterscreen) [2, 14] | also measured
1 | CCC(OC(=O)c1ccc(S(C)(=O)=O)c([N+](=O)[O-])c1)C(=O)NC1C2CC3CC(C2)CC1C3 (stereo not shown) [NCGC00188536-01] | -27 | -1.4 | 1.4 | – | – | – | – | – | – | – | – | – | – | CONFIRMATORY SCREEN Confirm? ([1]; confirmatory screen, YES/NO call): YES; CONFIRMATORY SCREEN Curve Class [1, 3]: -1.4; CONFIRMATORY SCREEN Efficacy (%) ([1]; confirmatory screen, negative = inhibition): -52%; IC50 ([1]; confirmatory screen, read-out: CONFIRMATORY SCREEN IC50): 2.5 µM; COUNTERSCREEN Efficacy (%) [2, 7]: -50%; COUNTERSCREEN Confirm? ([2]; scrambled-peptide counterscreen, YES/NO call): YES; COUNTERSCREEN Curve Class [2, 7]: -2.2; IC50 ([2]; scrambled-peptide counterscreen, read-out: COUNTERSCREEN IC50): 31.6 µM
2 | CS(=O)(=O)c1ccc(C(=O)OCC(=O)N2CCC(Cc3ccccc3)CC2)cc1[N+](=O)[O-] [NCGC00188541-01] | – | – | – | -18 | 4 | -25 | 0.7 | -22 | 4 | – | – | – | – | –
3 | O=C(O)C(F)(F)F.O=C1CCCC2=C1C1(CCCOC1)N=C(Nc1nc3ccccc3o1)N2 (stereo not shown) [NCGC00188575-01] | -34 | -2.2 | 28.2 | -18 | 4 | – | – | -21 | 4 | – | – | – | – | –
4 | Cn1c(NC2=NC3(CCCC3)C3=C(CCCC3=O)N2)nc2ccccc21.O=C(O)C(F)(F)F [NCGC00188583-01] | – | – | – | – | – | -27 | 7.1 | – | – | – | – | – | – | Efficacy (%) (confirmatory screen) ([1]; confirmatory screen): -31%; Confirm? (confirmatory screen) ([1]; confirmatory screen, YES/NO): YES; Curve Class (confirmatory screen) [1, 3]: -2.4; IC50 ([1]; confirmatory screen, read-out: IC50 [μM] (confirmatory screen)): 89.1 µM; Efficacy (%) (counterscreen) ([2]; counterscreen): -13%; Confirm? (counterscreen) ([2]; counterscreen, YES/NO): YES; Curve Class (counterscreen) ([2]; counterscreen, negative sign = inhibitory curve): 4
5 | O=C(O)C(F)(F)F.O=C1CCCC2=C1C1(CCOCC1)N=C(Nc1nc3ccccc3o1)N2 [NCGC00188584-01] | – | – | – | 0 | 4 | -26 | 15.8 | -16 | 4 | – | – | – | – | –
6 | O=C(O)c1ccccc1SC1=NS(=O)(=O)c2ccccc21 [NCGC00188636-02] | – | – | – | – | – | -66 | 44.7 | – | – | 4 | -29 | 4 | 0 | Curve Class [1, 12]: -2.2
7 | O=C(O)C(F)(F)F.Oc1cccc2cc(N3CCCC3)cnc12 [NCGC00188744-01] | – | – | – | – | – | -48 | 28.2 | – | – | 4 | -14 | -1.4 | -34 | Curve Class [1, 12]: -2.2; Confirm? (counterscreen) [2, 15]: YES; IC50 [2, 16]: 17.8 µM
8 | CN(C)c1cnc2c(O)cccc2c1.O=C(O)C(F)(F)F [NCGC00188745-01] | -53 | -2.2 | 44.7 | -19 | 4 | – | – | -32 | 4 | – | – | – | – | –
9 | O=C(O)C(F)(F)F.Oc1cccc2cc(C3CC3)cnc12 [NCGC00188747-01] | – | – | – | – | – | -36 | 31.6 | – | – | 4 | -17 | 4 | -25 | Curve Class [1, 12]: -1.2
10 | O=C(O)C(F)(F)F.O=C1CCCC2=C1C(c1ccncc1)N=C(Nc1nc3ccccc3o1)N2 (stereo not shown) [NCGC00188839-01] | -44 | -2.2 | 28.2 | – | – | – | – | – | – | 4 | -25 | 4 | -13 | –
11 | O=C(O)C(F)(F)F.O=C1CCCC2=C1C(c1ncccc1C(F)(F)F)N=C(Nc1nc3ccccc3o1)N2 (stereo not shown) [NCGC00189070-01] | -47 | -2.2 | 39.8 | – | – | – | – | – | – | 4 | -19 | -2.4 | -41 | Confirm? (counterscreen) [2, 15]: YES; IC50 [2, 16]: 28.2 µM

From article PMC11249646, “Small-Molecule Disruptors of the Interaction between Calcium- and Integrin-Binding Protein 1 and Integrin αIIbβ3 as Novel Antiplatelet Agents” (ACS Pharmacology & Translational Science, 2024)
